Experimental findings from ChEMBL document CHEMBL3244014, “Selenium-sulfur analogues. 1. Synthesis and biochemical evaluation of selenotetramisole” (J Med Chem, 1978) are described below.

One may read the inhibition as the share of the control response that was lost under treatment.

Calls of active or inactive are those of the source. No cut-off for these calls is given here.

In experiment [1] the target is T1, Alkaline phosphatase, tissue-nonspecific isozyme (Homo sapiens) (UniProt P05186).
T1 sequence (whole entry): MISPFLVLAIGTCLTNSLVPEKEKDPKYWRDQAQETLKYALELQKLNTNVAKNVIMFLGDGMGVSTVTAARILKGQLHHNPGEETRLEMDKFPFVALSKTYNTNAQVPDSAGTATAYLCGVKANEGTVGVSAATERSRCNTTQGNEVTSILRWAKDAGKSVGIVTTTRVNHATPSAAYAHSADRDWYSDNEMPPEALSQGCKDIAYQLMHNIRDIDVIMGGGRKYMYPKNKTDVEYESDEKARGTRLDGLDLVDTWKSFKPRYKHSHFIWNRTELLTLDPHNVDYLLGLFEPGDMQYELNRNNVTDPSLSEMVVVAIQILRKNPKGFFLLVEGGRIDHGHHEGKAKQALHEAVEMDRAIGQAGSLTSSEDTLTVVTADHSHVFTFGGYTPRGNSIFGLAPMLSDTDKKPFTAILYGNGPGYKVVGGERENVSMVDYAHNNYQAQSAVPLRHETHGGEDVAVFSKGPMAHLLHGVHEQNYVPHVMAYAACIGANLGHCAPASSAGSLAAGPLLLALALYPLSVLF
Briefly: Inhibition of human serum containing 86% liver alkaline phosphatase using p-nitrophenyl phosphate as substrate at 8.7 x 10^-5 M up to 35 mins by spectrophotometry.

Experiment [2] has as its target T1, Alkaline phosphatase, tissue-nonspecific isozyme (Homo sapiens). As to the kind of experiment: Inhibition of human serum containing 10% bone alkaline phosphatase using p-nitrophenyl phosphate as substrate at 8.7 x 10^-5 M up to 35 mins by spectrophotometry.
The species entered for experiment [3] is Bos taurus. As to the kind of experiment: Inhibition of bovine placenta alkaline phosphatase using p-nitrophenyl phosphate as substrate at 8.7 x 10^-5 M up to 35 mins by spectrophotometry.
Experiment [4] addresses T1, Alkaline phosphatase, tissue-nonspecific isozyme (Homo sapiens). Briefly: Inhibition of human serum containing 64% liver alkaline phosphatase using p-nitrophenyl phosphate as substrate at 8.7 x 10^-5 M up to 35 mins by spectrophotometry.
In experiment [5] the target is Intestinal-type alkaline phosphatase (Bos taurus) (UniProt P19111). As to the kind of experiment: Inhibition of calf intestine alkaline phosphatase using p-nitrophenyl phosphate as substrate at 8.7 x 10^-5 M up to 35 mins by spectrophotometry.
For experiment [6], the target named is Alkaline phosphatase, placental type (Homo sapiens) (UniProt P05187). Briefly: Inhibition of human placenta alkaline phosphatase using p-nitrophenyl phosphate as substrate at 8.7 x 10^-5 M up to 35 mins by spectrophotometry.
The target in experiment [7] is T1, Alkaline phosphatase, tissue-nonspecific isozyme (Homo sapiens). As to the kind of experiment: Inhibition of human serum containing 92% liver alkaline phosphatase using p-nitrophenyl phosphate as substrate at 8.7 x 10^-5 M up to 35 mins by spectrophotometry.
For experiment [8] the target is unchanged. Briefly: Inhibition of human serum containing 40% bone alkaline phosphatase using p-nitrophenyl phosphate as substrate at 8.7 x 10^-5 M up to 35 mins by spectrophotometry.
For experiment [9] the target is unchanged. As to the kind of experiment: Inhibition of human serum containing 60% liver alkaline phosphatase using p-nitrophenyl phosphate as substrate at 8.7 x 10^-5 M up to 35 mins by spectrophotometry.
The target is the same in experiment [10]. As to the kind of experiment: Inhibition of human serum containing 14% bone alkaline phosphatase using p-nitrophenyl phosphate as substrate at 8.7 x 10^-5 M up to 35 mins by spectrophotometry.
The target of experiment [11] is T2, Alkaline phosphatase, tissue-nonspecific isozyme (Bos taurus) (UniProt P09487).
T2 sequence (whole entry): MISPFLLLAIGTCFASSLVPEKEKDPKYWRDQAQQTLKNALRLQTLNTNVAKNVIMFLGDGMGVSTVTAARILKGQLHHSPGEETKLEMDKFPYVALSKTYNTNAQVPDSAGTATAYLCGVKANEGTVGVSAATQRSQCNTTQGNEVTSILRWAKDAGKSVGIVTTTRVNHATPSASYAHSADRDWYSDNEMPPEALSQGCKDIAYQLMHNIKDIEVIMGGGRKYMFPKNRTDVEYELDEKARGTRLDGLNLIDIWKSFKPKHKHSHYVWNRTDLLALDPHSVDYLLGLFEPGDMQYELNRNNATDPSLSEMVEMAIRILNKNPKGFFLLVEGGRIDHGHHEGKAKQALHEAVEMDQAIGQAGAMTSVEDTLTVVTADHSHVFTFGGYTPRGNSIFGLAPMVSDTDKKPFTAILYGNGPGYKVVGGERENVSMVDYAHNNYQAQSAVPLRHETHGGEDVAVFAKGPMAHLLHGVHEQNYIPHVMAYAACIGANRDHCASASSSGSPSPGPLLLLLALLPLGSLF
As to the kind of experiment: Inhibition of bovine liver alkaline phosphatase using p-nitrophenyl phosphate as substrate at 8.7 x 10^-5 M up to 35 mins by spectrophotometry.

Experiment [12] concerns the target T1, Alkaline phosphatase, tissue-nonspecific isozyme (Homo sapiens). Briefly: Inhibition of human serum containing 8% liver alkaline phosphatase using p-nitrophenyl phosphate as substrate at 8.7 x 10^-5 M up to 35 mins by spectrophotometry.
In experiment [13] the target is Intestinal-type alkaline phosphatase (Homo sapiens) (UniProt P09923). As to the kind of experiment: Inhibition of human serum containing 26% intestine alkaline phosphatase using p-nitrophenyl phosphate as substrate at 8.7 x 10^-5 M up to 35 mins by spectrophotometry.
Sequence of Intestinal-type alkaline phosphatase (Homo sapiens) (P09923 20-503 limits assumed): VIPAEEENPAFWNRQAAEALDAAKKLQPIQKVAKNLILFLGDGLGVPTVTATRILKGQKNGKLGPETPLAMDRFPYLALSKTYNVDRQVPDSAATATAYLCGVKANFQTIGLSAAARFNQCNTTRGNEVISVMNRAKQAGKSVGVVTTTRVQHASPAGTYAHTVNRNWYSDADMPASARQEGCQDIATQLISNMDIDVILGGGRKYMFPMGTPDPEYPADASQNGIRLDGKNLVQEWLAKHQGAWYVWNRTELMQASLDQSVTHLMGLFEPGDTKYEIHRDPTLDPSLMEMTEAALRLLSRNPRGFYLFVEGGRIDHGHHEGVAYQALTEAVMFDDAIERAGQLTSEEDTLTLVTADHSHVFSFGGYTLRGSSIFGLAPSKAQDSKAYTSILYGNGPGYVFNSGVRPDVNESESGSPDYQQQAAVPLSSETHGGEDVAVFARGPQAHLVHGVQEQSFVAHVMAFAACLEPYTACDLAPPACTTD

Sequence of Intestinal-type alkaline phosphatase (Bos taurus) (P19111 20-506 limits assumed): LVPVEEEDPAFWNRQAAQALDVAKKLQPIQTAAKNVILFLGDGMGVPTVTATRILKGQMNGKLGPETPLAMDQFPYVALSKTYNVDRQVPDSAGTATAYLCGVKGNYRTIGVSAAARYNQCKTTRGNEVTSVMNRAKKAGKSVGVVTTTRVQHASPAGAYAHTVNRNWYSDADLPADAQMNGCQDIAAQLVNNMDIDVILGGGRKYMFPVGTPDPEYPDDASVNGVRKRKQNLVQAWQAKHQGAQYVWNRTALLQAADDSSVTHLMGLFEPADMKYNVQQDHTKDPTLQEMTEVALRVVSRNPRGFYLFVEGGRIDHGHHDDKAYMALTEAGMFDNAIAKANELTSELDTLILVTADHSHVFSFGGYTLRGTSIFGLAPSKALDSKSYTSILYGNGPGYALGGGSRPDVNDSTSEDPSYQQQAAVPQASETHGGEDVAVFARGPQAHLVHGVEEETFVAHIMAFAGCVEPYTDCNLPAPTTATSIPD
Sequence of Alkaline phosphatase, placental type (Homo sapiens) (P05187 whole entry): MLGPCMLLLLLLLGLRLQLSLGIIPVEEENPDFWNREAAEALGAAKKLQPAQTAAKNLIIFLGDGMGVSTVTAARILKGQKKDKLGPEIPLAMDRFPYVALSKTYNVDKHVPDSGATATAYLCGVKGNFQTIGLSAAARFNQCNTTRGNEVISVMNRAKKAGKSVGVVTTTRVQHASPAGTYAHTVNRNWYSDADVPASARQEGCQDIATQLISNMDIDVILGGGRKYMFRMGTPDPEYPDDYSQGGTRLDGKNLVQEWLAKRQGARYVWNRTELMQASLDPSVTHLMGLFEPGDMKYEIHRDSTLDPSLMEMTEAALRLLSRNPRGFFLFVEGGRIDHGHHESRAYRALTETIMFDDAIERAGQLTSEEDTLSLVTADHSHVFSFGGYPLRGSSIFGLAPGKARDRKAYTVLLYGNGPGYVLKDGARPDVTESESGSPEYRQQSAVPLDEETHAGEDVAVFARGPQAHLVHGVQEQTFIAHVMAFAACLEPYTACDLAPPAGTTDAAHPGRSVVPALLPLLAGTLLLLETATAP

Turning to `c1ccc([C@@H]2CN3CCSC3=N2)cc1` (stereo in doubt; (+)), the inhibition result in [1], in [2], in experiment [3], in experiment [4], in experiment [5] and in experiment [6] was “inactive” throughout. For the same compound, the inhibition entry in [7], in experiment [8], in [9], in [10], in experiment [11] and in [12] was “inactive” in each case. Moreover, the inhibition result in experiment [13] was “inactive”.
On to `c1ccc([C@@H]2CN3CCSC3=N2)cc1` (stereo in doubt; (-)), for which the inhibition in experiment [1] worked out at 56%; in experiment [2] it was 65%; in [3], 75%; in [4] it was 65%; in experiment [5], 10%; in [6] it was 0%. Moreover, the inhibition was 76% in experiment [7]; 71% in experiment [8]; 71% in [9]; 56% in [10]; 67% in experiment [11]; 76% in [12]. In addition, the inhibition in experiment [13] came to 65%.
Turning to `c1ccc([C@@H]2CN3CC[Se]C3=N2)cc1`, the inhibition result in experiment [1], in experiment [2], in [3], in [4], in experiment [5] and in experiment [6] was “inactive” throughout. Also, the inhibition entry in experiment [7], in experiment [8], in experiment [9], in experiment [10], in experiment [11] and in [12] was “inactive” throughout. In addition, the inhibition entry in [13] was “inactive”.
As for `c1ccc([C@H]2CN3CC[Se]C3=N2)cc1`, the inhibition amounted to 63% in experiment [1]; 70% in [2]; 78% in experiment [3]; 70% in experiment [4]; 10% in experiment [5]; 0% in experiment [6]. The inhibition in experiment [7] was found to be 80%; in experiment [8], 78%; in experiment [9], 78%; in [10] it was 63%; in experiment [11], 76%; in experiment [12] it was 80%. The compound further registered an inhibition in [13] of 70%.
